Key:
CB2 receptor (hCB2) = target: T1, CB2 receptor (hCB2) (Homo sapiens, UniProt P34972); experiment: radioligand competition ([3H]CP55940) on HEK293 membranes expressing hCB2; agonist in CRE-Luc assay; type: binding
T1 construct: gene CNR2

PPARγ = target: T2, PPARγ (Homo sapiens, UniProt P37231); experiment: fluorescence polarization competition (PolarScreen PPARγ Competitor Assay); GAL4-PPARγ transactivation; type: binding
T2 construct: gene PPARG
T2 sequence (P37231 1-505): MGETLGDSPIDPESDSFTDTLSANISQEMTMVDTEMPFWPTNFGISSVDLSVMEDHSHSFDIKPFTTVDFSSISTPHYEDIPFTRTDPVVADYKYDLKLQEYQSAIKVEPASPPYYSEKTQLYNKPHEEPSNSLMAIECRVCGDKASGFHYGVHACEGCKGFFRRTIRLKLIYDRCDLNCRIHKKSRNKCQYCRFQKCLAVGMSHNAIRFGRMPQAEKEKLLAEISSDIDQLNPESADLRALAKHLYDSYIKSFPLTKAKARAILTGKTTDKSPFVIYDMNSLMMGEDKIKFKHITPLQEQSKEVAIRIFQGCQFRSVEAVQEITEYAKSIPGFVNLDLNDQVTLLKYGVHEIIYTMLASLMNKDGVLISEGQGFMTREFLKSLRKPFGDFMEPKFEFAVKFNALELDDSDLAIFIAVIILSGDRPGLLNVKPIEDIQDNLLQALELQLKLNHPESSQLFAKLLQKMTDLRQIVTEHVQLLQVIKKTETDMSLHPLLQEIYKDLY

T1 sequence (P34972 whole entry): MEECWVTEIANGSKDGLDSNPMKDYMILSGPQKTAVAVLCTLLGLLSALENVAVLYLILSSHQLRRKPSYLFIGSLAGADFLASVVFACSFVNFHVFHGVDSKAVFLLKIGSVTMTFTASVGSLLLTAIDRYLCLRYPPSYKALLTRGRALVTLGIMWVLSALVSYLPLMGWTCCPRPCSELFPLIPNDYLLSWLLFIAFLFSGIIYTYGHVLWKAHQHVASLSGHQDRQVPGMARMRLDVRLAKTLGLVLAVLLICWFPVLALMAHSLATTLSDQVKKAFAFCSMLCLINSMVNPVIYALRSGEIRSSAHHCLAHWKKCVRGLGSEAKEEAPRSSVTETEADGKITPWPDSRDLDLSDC

C=C(C)[C@@H]1CCC(C)=C[C@H]1C1=C(O)C(=O)C(CCCCC)=C(NCc2ccccc2)C1=O [VCE-004.8]
Ki (CB2 receptor (hCB2)): 170 ± 50 nM
IC50 (PPARγ): 1700 nM

From publication PMC4757881 (Scientific Reports, 2016)
